The results in this text go back to US20060014231A1, “Methods and compositions to promote bone homeostasis” (priority 2004, published 2006).

Test [1] has as its target T1, NR1H3 (Homo sapiens, UniProt Q13133).
T1 construct: amplification of the complete open reading frame from ATG start codon to the stop codon of drugable genes; expressed in transfected cells; host or cells: primary human bone-marrow mesenchymal progenitor cells (MPCs), adenoviral transduction (Ad5-NR1H3 with Ad-hCAR)
T1 sequence (Q13133 1-447): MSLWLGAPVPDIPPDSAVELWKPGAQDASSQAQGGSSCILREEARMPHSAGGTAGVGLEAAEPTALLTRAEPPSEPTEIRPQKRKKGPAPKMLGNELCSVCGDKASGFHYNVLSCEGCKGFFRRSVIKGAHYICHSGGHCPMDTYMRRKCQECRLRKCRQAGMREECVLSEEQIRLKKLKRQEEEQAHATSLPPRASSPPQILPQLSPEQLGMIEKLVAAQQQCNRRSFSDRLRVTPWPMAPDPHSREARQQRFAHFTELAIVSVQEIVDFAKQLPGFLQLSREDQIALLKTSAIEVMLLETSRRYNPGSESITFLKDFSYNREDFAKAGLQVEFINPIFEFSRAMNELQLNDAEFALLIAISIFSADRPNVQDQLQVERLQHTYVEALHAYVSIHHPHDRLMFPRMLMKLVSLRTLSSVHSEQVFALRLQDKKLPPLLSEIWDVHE
As to the kind of experiment: Osteogenic marker mRNA levels in MPCs, Ad-NR1H3+T0901317 (rtRT-PCR). To be noted: Ad-NR1H3+T0901317 (1 μM); up-regulated = 4-fold higher than Ad-eGFP or Ad-luciferase; one or more time points. In kind it is cell-based. On the procedure:
100,000 MPCs are seeded in each well of a 6 well plate in 2 ml MPC medium, containing 10% FCS. The next day, after incubation at 37° C., 10% CO2 in a humidified incubator, cells are co-infected with AdC15-hCAR (final MOI of 750) and Ad-NR5A2, Ad-NR1H3+T0901317 (1 μM) or Ad-BMP2 (positive control) or Ad-eGFP or Ad-luciferase as negative controls (final MOIs of 1250 and 2500). Cells are incubated at 37° C., 10% CO2 in a humidified incubator for a further six days unless cells are already harvested for RNA isolation. Virus is removed and replaced by 2 ml fresh OS medium (proprietary medium containing 10% FCS). Over the next 3 weeks, medium is refreshed 3 times per 2 weeks. Every other time, medium is refreshed half or completely. Monolayers are harvested at several time points (see FIG. 15), total RNA is harvested and quantified and rtRT-PCRs are run as follows: monolayers are washed with ice cold PBS and harvested by adding SV RNA Lysis Buffer. Total RNA is prepared using the SV Total RNA isolation System (Promega, Cat # Z3100). RNA concentration is measured with the Ribogreen RNA Quantification kit (Molecular Probes, Leiden, The Netherlands, Cat No. R-11490). cDNA synthesis is performed using 20 ng total RNA per reaction using the TaqMan Universal PCR Master Mix, No AmpErase UNG, kit (Applied Biosystems, Warrington, UK, Part number 4324018). For each reverse transcriptase (RT) reaction a minus-RT reaction (negative control: no enzyme included in the reaction) is performed. The real-time reverse transcriptase (rtRT)-PCR reaction is performed with gene specific primers on both cDNA and minus-RT samples, using the SYBR Green PCR Master Mix (Applied Biosystems, Warrington, UK, Part number 4309155). Primers are quality controlled by performing PCR reactions on human genomic DNA and on plasmids containing the cDNA encoded by the gene studied if available. If the quality is unsatisfactory, additional primers are designed or validated primer sets are purchased (ABI). For the normalization of the expression levels a RT-PCR reaction is performed on human P-actin using the Human P-actin kit (Applied Biosystems, Warrington, UK, Part number 4310881E). The following program is run on a real-time PCR apparatus (ABI PRISM 7000 Sequence Detection System): 10 min at 25° C., 30 min at 48° C., 5 min at 95° C.
Expression levels for osteogenic marker genes are first normalized for beta-actin levels. The resulting data for Ad-BMP2, Ad-NR5A2 and Ad-NR1H3+T0901317 (1 μM) samples are then compared to those of Ad-eGFP or Ad-luciferase negative control samples, harvested at the same time points, for cells infected at the same MOI.

The subject of test [2] is primary human MPCs. As to the kind of experiment: Mineralization assay (Alizarin RedS / Von Kossa stain). In kind it is cell-based. To be noted: MPCs with NR1H3 and ligand. On the procedure:
On day one, primary human MPCs are seeded in a 6 well plate (Costar or Nunc) at a density of 50,000 to 250,000 cells per well, typically at 100,000 cells per well. MPCs are co-infected one day later with AdC15-hCAR (MOI 750) and Ad-control (eGFP or BMP2) or hit-virus (Ad5) (at MOIs between 250 and 20,000, typically at MOIs 5000 and 2500). For Ad-GPCR or Ad-NHR experiments, cells can additionally be treated with specific ligands. These are added at the EC50 concentration and at concentrations 5-10 times higher and lower. Ligands are added 2-3 times per week. Medium supplemented with 100 μg/ml L-ascorbate and 10 mM beta-glycerophosphate, is refreshed 2 times a week. 20 to 30 days after the start of the experiment, cells are stained with Von Kossa stain or with Alizarin RedS stain.
The Alizarin RedS staining is carried out as follows: cells are washed once with PBS, fixed with 10% paraformaldehyde for 45 minutes at 4° C., and washed 2 times with PBS. Cells are incubated with 40 mM aqueous Alizarin RedS solution, pH 4.1-4.3 for 10 minutes followed by 5 washes with distilled water. Staining is evaluated and photographed using white light.

Regarding `O=S(=O)(c1ccccc1)N(CC(F)(F)F)c1ccc(C(O)(C(F)(F)F)C(F)(F)F)cc1` [T0901317], in test [1], the “BAP mRNA expression” value was “up-regulated”, the “PTHR1 mRNA expression” value is listed as “up-regulated”, the “RANKL mRNA expression” value is listed as “up-regulated” and the “aromatase mRNA expression” value is on record as “up-regulated”. For the same molecule, the “osteopontin mRNA expression” value in test [1] is recorded as “up-regulated”. Further, in test [2], the mineralization entry was “score well”.
